Among the test systems are NCI-H460 lung; SNB-75 CNS; UACC-62 melanoma; SK-OV-3 ovarian; 786-0 renal; SF-539 CNS; ACHN renal; M14 melanoma; HL-60(TB) leukemia; CCRF-CEM leukemia.
Holding throughout (experiment): NCI tumour cell line growth inhibition, 48 h

Eight molecules from PubChem BioAssay (NCI) can be followed below.

SMILES strings stand for the structures.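 Exposure lasted 48 hours, with cells grown in 96-well plates and compounds tested at five concentrations. The concentration for 50% growth inhibition is given as GI50. TGI: total growth inhibition.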

For `CCC(=O)N1C/C(=C/c2ccc(Br)cc2)C(=O)/C(=C/c2ccc(Br)cc2)C1`, the GI50 is 0.827 µM in the experiment on NCI-H460 lung; 2.34 µM in the experiment on SNB-75 CNS; 0.724 µM in the experiment with UACC-62 melanoma; 1.73 µM with SK-OV-3 ovarian; 0.546 µM with 786-0 renal; 0.706 µM with SF-539 CNS. Further, the GI50 is 0.694 µM with ACHN renal, 0.885 µM with M14 melanoma, 1.86 µM in the experiment with HL-60(TB) leukemia and 0.88 µM in the experiment on CCRF-CEM leukemia. In addition, the TGI in the experiment on NCI-H460 lung came to 3.07 µM; in the experiment on SNB-75 CNS, 9.71 µM; with UACC-62 melanoma it was 2.06 µM; in the experiment on SK-OV-3 ovarian, 5.98 µM; in the experiment with 786-0 renal it was 1.2 µM; with SF-539 CNS it was 1.79 µM. The TGI in the experiment with ACHN renal turned out to be 1.87 µM; in the experiment on M14 melanoma, 2.7 µM; in the experiment with HL-60(TB) leukemia it was 5.63 µM; in the experiment with CCRF-CEM leukemia, 4.6 µM.
Take `CCN(CC)CCN1c2nc3ccccc3cc2Sc2cc3ccccc3nc21`: the GI50 was 1.52 µM in the experiment on NCI-H460 lung; 1.32 µM with SNB-75 CNS; 1.77 µM in the experiment on UACC-62 melanoma; 3.5 µM in the experiment on SK-OV-3 ovarian; 2.17 µM in the experiment on 786-0 renal; 1.6 µM in the experiment with SF-539 CNS. The GI50 with ACHN renal was 2.58 µM; in the experiment with M14 melanoma, 1.64 µM; in the experiment on HL-60(TB) leukemia, 1.99 µM; with CCRF-CEM leukemia, 1.84 µM. Besides, the TGI in the experiment with NCI-H460 lung is 2.95 µM; in the experiment on SNB-75 CNS, 6.22 µM; in the experiment on UACC-62 melanoma, 4.37 µM; in the experiment with SK-OV-3 ovarian it was 12.9 µM; in the experiment with 786-0 renal, 4.64 µM; in the experiment on SF-539 CNS, 3.16 µM. The TGI in the experiment with ACHN renal worked out at 9.29 µM; in the experiment with M14 melanoma, 3.38 µM; with HL-60(TB) leukemia, 4.21 µM; in the experiment with CCRF-CEM leukemia, 4.73 µM.
Consider `O=C1Nc2ccccc2/C1=C\c1nc(-c2ccccc2F)n2ccccc12`, for which the GI50 with NCI-H460 lung was 2.17 µM; in the experiment with SNB-75 CNS it was 1.79 µM; in the experiment on UACC-62 melanoma it was 6.32 µM; in the experiment with SK-OV-3 ovarian, 3.46 µM; with 786-0 renal it was 3.44 µM; with SF-539 CNS, 3.1 µM. Further, the GI50 with ACHN renal is 3.3 µM; in the experiment on M14 melanoma, 5.65 µM; in the experiment with HL-60(TB) leukemia, 24.9 µM; in the experiment on CCRF-CEM leukemia it was 91.1 µM. Further, the TGI came to 5.14 µM in the experiment on NCI-H460 lung; 4.95 µM in the experiment with SNB-75 CNS; 25.2 µM in the experiment with UACC-62 melanoma; 12.4 µM in the experiment on SK-OV-3 ovarian; 10.1 µM in the experiment on 786-0 renal; 11.1 µM with SF-539 CNS. Further, the TGI with ACHN renal is 10.9 µM; in the experiment on M14 melanoma, 17.9 µM; in the experiment with HL-60(TB) leukemia, over 100 µM; in the experiment with CCRF-CEM leukemia, over 100 µM.
As for `Cn1cc(C2=C(c3cn(CCCN)c4ccccc34)C(=O)NC2=O)c2ccccc21`, the GI50 is 5.25 µM in the experiment with NCI-H460 lung; 0.998 µM with SNB-75 CNS; 4.35 µM in the experiment on UACC-62 melanoma; 5.58 µM in the experiment with SK-OV-3 ovarian; 4.75 µM with 786-0 renal; 3.44 µM with SF-539 CNS. Also, the GI50 in the experiment on ACHN renal was 5.53 µM; in the experiment with M14 melanoma, 4.38 µM; in the experiment with HL-60(TB) leukemia, 5.04 µM; with CCRF-CEM leukemia, 2.59 µM. Also, the TGI in the experiment with NCI-H460 lung was 11.1 µM; with SNB-75 CNS it was 5.35 µM; in the experiment on UACC-62 melanoma, 8.05 µM; with SK-OV-3 ovarian it was over 25 µM; in the experiment with 786-0 renal, 14.2 µM; in the experiment on SF-539 CNS it was 6.86 µM. The TGI in the experiment on ACHN renal came to 19.7 µM; in the experiment on M14 melanoma, 8.6 µM; with HL-60(TB) leukemia it was 11.6 µM; in the experiment with CCRF-CEM leukemia it was 12.1 µM.
As to `CCOc1ccc(C(C[N+](=O)[O-])Sc2ccccc2N)cc1` (stereo not given), the GI50 in the experiment with NCI-H460 lung is 10.2 µM; in the experiment on SNB-75 CNS it was 2.8 µM; with UACC-62 melanoma it was 10 µM; with SK-OV-3 ovarian it was 14.2 µM; in the experiment on 786-0 renal it was 5.11 µM; in the experiment on SF-539 CNS, 1.89 µM. Moreover, the GI50 is 11.1 µM in the experiment with ACHN renal, 6.6 µM in the experiment with M14 melanoma, 2.27 µM in the experiment with HL-60(TB) leukemia and 3.67 µM with CCRF-CEM leukemia. For the same molecule, the TGI in the experiment with NCI-H460 lung amounted to 27 µM; with SNB-75 CNS, 17.4 µM; in the experiment on UACC-62 melanoma, 21.6 µM; in the experiment on SK-OV-3 ovarian, 27.2 µM; with 786-0 renal it was 17.1 µM; in the experiment on SF-539 CNS, 3.94 µM. Besides, the TGI in the experiment on ACHN renal was found to be 23.1 µM; in the experiment on M14 melanoma, 19.5 µM; with HL-60(TB) leukemia it was 6.59 µM; in the experiment with CCRF-CEM leukemia, 18.9 µM.
As to `CC(=O)Nc1ccc(S(=O)(=O)N=S(C)C)cc1`, the TGI in the experiment on NCI-H460 lung, in the experiment on SNB-75 CNS, with UACC-62 melanoma, in the experiment with SK-OV-3 ovarian, with 786-0 renal and with SF-539 CNS was over 100 µM each time. Also, the TGI in the experiment on ACHN renal, in the experiment with M14 melanoma, in the experiment on HL-60(TB) leukemia and in the experiment on CCRF-CEM leukemia was over 100 µM in each case.
As to `CCOC(=O)c1[nH]c2cc(OC)c(OC)cc2c1CN(C)C`, the TGI in the experiment on NCI-H460 lung, with SNB-75 CNS, with UACC-62 melanoma, in the experiment with SK-OV-3 ovarian, with 786-0 renal and with SF-539 CNS was over 100 µM each time. The TGI in the experiment with ACHN renal, in the experiment with M14 melanoma, with HL-60(TB) leukemia and with CCRF-CEM leukemia was over 100 µM throughout.
`C=C1C(=O)O[C@H]2[C@H]1CC/C(COC(=O)/C=C\C(=O)NCc1ccc(Cn3c(=O)sn(CCI)c3=O)cc1)=C\CC[C@@]1(C)O[C@@H]21`: the GI50 with NCI-H460 lung is 15.5 µM; in the experiment on SNB-75 CNS it was 4.24 µM; with UACC-62 melanoma, 1.83 µM; in the experiment with SK-OV-3 ovarian, 17.4 µM; with 786-0 renal, 2.6 µM; in the experiment with SF-539 CNS, 3.36 µM. Moreover, the GI50 in the experiment on ACHN renal was 1.93 µM; with M14 melanoma, 6.25 µM; in the experiment with HL-60(TB) leukemia, 1.59 µM; with CCRF-CEM leukemia it was 1.61 µM. Besides, the TGI is 37.9 µM in the experiment with NCI-H460 lung; 18.5 µM in the experiment on SNB-75 CNS; 3.86 µM with UACC-62 melanoma; 31.2 µM in the experiment on SK-OV-3 ovarian; 7.23 µM in the experiment on 786-0 renal; 9.51 µM in the experiment on SF-539 CNS. Also, the TGI with ACHN renal was 3.74 µM; in the experiment with M14 melanoma, 19.7 µM; in the experiment with HL-60(TB) leukemia, 5.41 µM; in the experiment with CCRF-CEM leukemia it was 6.19 µM.
